Results from US20110053983A1, “(5R)-1,5-DIARYL-4,5-DIHYDRO-1H-PYRAZOLE-3-CARBOXAMIDINE DERIVATIVES HAVING CB1-ANTAGONISTIC ACTIVITY” (priority 2008, published 2011).
“Also recorded” adds a separate entry of the source. Read-outs that look alike come from different tables or passages of the source.

Tests used:
[1] = target: human cannabinoid CB1 receptor (Homo sapiens, UniProt P21554); assay: In vitro affinity for cannabinoid-CB1 receptors, displacement of [3H]CP-55,940; format: binding
Method: In vitro affinity for cannabinoid-CB1 receptors was determined using membrane preparations of Chinese hamster ovary (CHO) cells wherein the human cannabinoid CB1 receptor was stably transfected in conjunction with [^3H]CP-55,940 as radioligand. After incubation of a freshly prepared cell membrane preparation with the [^3H]-ligand, with or without addition of compounds of the invention, separation of bound and free ligand was performed by filtration over glassfiber filters. Radioactivity on the filter was measured by liquid scintillation counting. The binding data were either obtained by CEREP (128, rue Danton, 92500 Rueil-Malmaison, France) or at Solvay Pharmaceuticals B.V. (C. J. van Houtenlaan 36, 1381 C P Weesp, The Netherlands).

cannabinoid-CB1 receptor = target: T1, cannabinoid-CB1 receptor (Rattus norvegicus, UniProt P20272); assay: In vivo CB1 receptor antagonism, CP-55,940-induced hypotension test; conditions: for ED50: po, CP-55,940 (0.1 mg/kg i.v.) induced hypotension, read-out: CB-agonist induced blood pressure rat ID50; for activity in the in vivo CB1 mediated (CP-55,940-induced) hypotension test, in words: oral administration
T1 construct: Male normotensive rats (225-300 g; Harlan, Horst, The Netherlands) were anaesthetized; from tissue; host or cells: whole animal: male normotensive rats (Harlan)
Method: In vivo cannabinoid-CB1 receptor antagonism was assessed with the CP-55,940-induced hypotension test in rat. Male normotensive rats (225-300 g; Harlan, Horst, The Netherlands) were anaesthetized with pentobarbital (80 mg/kg ip). Blood pressure was measured, via a cannula inserted into the left carotid artery, by means of a Spectramed DTX-plus pressure transducer (Spectramed B. V., Bilthoven, The Netherlands). After amplification by a Nihon Kohden Carrier Amplifier (Type AP-621G; Nihon Kohden B. V., Amsterdam, The Netherlands), the blood pressure signal was registered on a personal computer (Compaq Deskpro 386s), by means of a Po-Ne-Mah data-acquisition program (Po-Ne-Mah Inc., Storrs, USA). Heart rate was derived from the pulsatile pressure signal. All compounds were administered orally as a microsuspension in 1% methylcellulose, 30 minutes before induction of the anesthesia, 60 minutes prior to administration of the CB1 receptor agonist CP-55,940. The injection volume was 10 ml/kg. After haemodynamic stabilization the CB1 receptor agonist CP-55,940 (0.1 mg/kg i. v.) was administered and the hypotensive effect established (Wagner, 2001).

human CB1 receptors = human CB1 receptors (Homo sapiens, UniProt P21554); assay: In vitro CB1 receptor antagonism, inhibition of WIN 55,212-2-induced [3H]-arachidonic acid release in CHO cells; format: cell-based; conditions: for Kb: read-out: functional activity inhibition AA release [3H]-Arachidonic acid pA2 (converted)
Method: In vitro cannabinoid-[…] receptor antagonism was assessed with human CB1 receptors cloned in Chinese hamster ovary (CHO) cells. CHO cells were grown in a Dulbecco's Modified Eagle's medium (DMEM) culture medium, supplemented with 10% heat-inactivated fetal calf serum. Medium was aspirated and replaced by DMEM, without fetal calf serum, but containing [^3H]-arachidonic acid and incubated overnight in a cell culture stove (5% CO2/95% air; 37° C.; water-saturated atmosphere). During this period [^3H]-arachidonic acid was incorporated in membrane phospholipids. On the test day, medium was aspirated and cells were washed three times using 0.5 mL DMEM, containing 0.2% bovine serum albumin (BSA). Stimulation of the CB1 receptor by WIN 55,212-2 lead to activation of PLA2 followed by release of [^3H]-arachidonic acid into the medium. This WIN 55,212-2-induced release was concentration-dependently antagonized by CB1 receptor antagonists.

[2] = h-CB1 receptor, CHO cell membranes, read-out: receptor binding displacement [3H]-CP-55,940 pKi (converted)
[3] = h-CB1 receptor in CHO cells, WIN 55,212-2-induced release
[4] = (5R) versus (5S)-enantiomer (compound 2)

human CB1 receptors, sequence (P21554 whole entry): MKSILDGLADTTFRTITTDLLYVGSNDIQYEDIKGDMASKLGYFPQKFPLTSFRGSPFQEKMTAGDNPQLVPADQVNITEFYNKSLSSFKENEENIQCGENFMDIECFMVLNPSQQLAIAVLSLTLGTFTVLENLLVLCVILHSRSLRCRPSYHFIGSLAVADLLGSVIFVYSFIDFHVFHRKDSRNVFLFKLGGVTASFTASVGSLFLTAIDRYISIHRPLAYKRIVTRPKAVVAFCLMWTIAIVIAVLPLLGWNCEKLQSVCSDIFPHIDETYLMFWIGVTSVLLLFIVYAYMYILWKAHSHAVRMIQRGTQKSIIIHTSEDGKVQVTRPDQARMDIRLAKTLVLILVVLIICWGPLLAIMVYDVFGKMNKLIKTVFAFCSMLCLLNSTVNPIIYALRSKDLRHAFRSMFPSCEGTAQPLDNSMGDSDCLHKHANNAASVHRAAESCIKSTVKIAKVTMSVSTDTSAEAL
human cannabinoid CB1 receptor, sequence (P21554 whole entry): as above
T1 sequence (P20272 whole entry): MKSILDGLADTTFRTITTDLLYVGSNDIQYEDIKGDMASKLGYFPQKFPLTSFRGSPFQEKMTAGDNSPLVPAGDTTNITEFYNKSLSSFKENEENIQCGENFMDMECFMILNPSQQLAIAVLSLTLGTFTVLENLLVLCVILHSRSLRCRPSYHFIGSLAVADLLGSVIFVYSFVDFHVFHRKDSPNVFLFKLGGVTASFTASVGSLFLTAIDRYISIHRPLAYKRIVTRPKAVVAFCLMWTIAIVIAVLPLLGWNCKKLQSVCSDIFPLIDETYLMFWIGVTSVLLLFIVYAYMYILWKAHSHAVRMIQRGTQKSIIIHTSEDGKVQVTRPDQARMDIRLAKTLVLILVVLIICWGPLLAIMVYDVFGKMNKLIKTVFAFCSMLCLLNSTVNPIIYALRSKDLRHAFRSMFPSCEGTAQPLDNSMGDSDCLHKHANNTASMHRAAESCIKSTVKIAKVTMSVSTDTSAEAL

SMILES | Ki [1, 2] [µM] | ED50 (cannabinoid-CB1 receptor) [mg/kg] | activity in the in vivo CB1 mediated (CP-55,940-induced) hypotension test, in words (cannabinoid-CB1 receptor) | further results
CN/C(=N\S(=O)(=O)N1CCC(F)CC1)C1=NN(c2ccc(Cl)cc2)[C@@H](c2ccccc2)C1 [Compound 3, 5R-(+)-N-[(4-fluoropiperidin-1-yl)sulfonyl]-N′-methyl-1-(4-chlorophenyl)-5-phenyl-4,5-dihydro-(1H)-pyrazole-3-carboxamidine] | 0.0158 | – | – | –
CN=C(NS(=O)(=O)N1CCC(F)(F)CC1)C1=NN(c2ccc(Cl)cc2)C(c2ccccc2F)C1 (racemic) [racemate 2, N-[(4,4-difluoropiperidin-1-yl)sulfonyl]-N′-methyl-1-(4-chlorophenyl)-5-(2-fluorophenyl)-4,5-dihydro-(1H)-pyrazole-3-carboxamidine] | – | – | – | melting point: 166 to 167 °C
CN/C(=N\S(=O)(=O)N1CCCCC1)C1=NN(c2ccc(Cl)cc2)C(c2ccccc2)C1 (stereo not shown) [EP 1 713 475 Compound 10, reference compound] | – | > 30 | – | –
CN/C(=N\S(=O)(=O)N1CCCCC1)C1=NN(c2ccc(Cl)cc2)C(c2ccccc2)C1 (racemic) [N-[(piperidin-1-yl)-sulfonyl]-N′-methyl-1-(4-chlorophenyl)-5-phenyl-4,5-dihydro-(1H)-pyrazole-3-carboxamidine, reference compound] | – | > 30 | – | –
CN/C(=N\S(=O)(=O)N1CCC(F)(F)CC1)C1=NN(c2ccc(Cl)cc2)[C@H](c2ccccc2)C1 (single isomer, unassigned) [Compound 2] | 0.251 | > 30 | inactive | Kb (human CB1 receptors; [3]): 0.0794 µM
CN/C(=N\S(=O)(=O)N1CCC(C(F)(F)F)CC1)C1=NN(c2ccc(Cl)cc2)[C@@H](c2ccccc2)C1 [Compound 4, 5R-(+)-N-[(4-(trifluoromethyl)piperidin-1-yl)sulfonyl]-N′-methyl-1-(4-chlorophenyl)-5-phenyl-4,5-dihydro-(1H)-pyrazole-3-carboxamidine] | – | – | – | functional activity inhibition AA release [3H]-Arachidonic acid pA2 (human CB1 receptors; [3]): 9.5; Ki [1]: 0.00316 µM
CN/C(=N\S(=O)(=O)N1CCC(F)(F)CC1)C1=NN(c2ccc(Cl)cc2)[C@@H](c2ccccc2)C1 (single isomer, unassigned) [Compound 1] | 0.01 | 6 | active; also recorded: potent activities | antagonist potency (pA2) relative to the (5S)-enantiomer (human CB1 receptors; [4]): 40 times; Kb (human CB1 receptors; [3]): 0.00158 µM; affinity for human CB1 receptors relative to the (5S)-enantiomer [1, 4]: 25 fold
CN=C(NS(=O)(=O)N1CCC(F)(F)CC1)C1=NN(c2ccc(Cl)cc2)C(c2ccccc2)C1 (racemic) [racemate (1 + 2), N-[(4,4-difluoropiperidin-1-yl)sulfonyl]-N′-methyl-1-(4-chlorophenyl)-5-phenyl-4,5-dihydro-(1H)-pyrazole-3-carboxamidine] | 0.0251 | 9 | potent activities | –
